In ChEMBL document CHEMBL3272136, “A new series of cardioselective adrenergic beta-receptor blocking compounds. 1-(2-Acyl-4-acylaminophenoxy)-3-isopropylaminopropan-2-ols” (1976):

Key:
Felis catus [1] = test: Ratio of in vivo beta-2 adrenergic receptor blocking activity in iv dosed cat assessed as half dose required for desensitizing isoproterenol-induced diastolic hypotensive response to in vivo beta-1 adrenergic receptor blocking activity in iv dosed cat assessed as half dose required for desensitizing isoproterenol-induced tachycardia; type: functional
Canis familiaris = test: Antiarrhythmic activity in iv dosed dog assessed as dose required for reversal of ouabain-induced cardiac arrhythmia; type: functional, Canis lupus familiaris, Heart
Felis catus [2] = test: In vivo beta-2 adrenergic receptor blocking activity in iv dosed cat assessed as half dose required for desensitizing isoproterenol-induced diastolic hypotensive response after 3.5 mins; type: functional
Felis catus [3] = test: In vivo beta-1 adrenergic receptor blocking activity in iv dosed cat assessed as half dose required for desensitizing isoproterenol-induced tachycardia after 3.5 mins; type: functional

Structure (SMILES)	Ratio (Felis catus [1])	Activity (Canis familiaris)	Activity (Felis catus [2])	Activity (Felis catus [3])
CCCCC(=O)Nc1ccc(OCC(O)CNC(C)C)c(C(C)=O)c1 (centres undefined)	27	4.8 mg/kg	0.89 mg/kg	0.033 mg/kg
CCC(=O)Nc1ccc(OCC(O)CNC(C)C)c(C(=O)CC)c1 (centres undefined)	15.77	6.4 mg/kg	0.41 mg/kg	0.026 mg/kg
CC(=O)c1cc(NC(=O)c2ccccc2)ccc1OCC(O)CNC(C)C (centres undefined)	–	5.8 mg/kg	1 mg/kg	0.54 mg/kg
CC(=O)c1cc(NC(=O)Cc2ccccc2)ccc1OCC(O)CNC(C)C (centres undefined)	5.33	12.6 mg/kg	0.16 mg/kg	0.03 mg/kg
CCCC(=O)Nc1ccc(OCC(O)CNC(C)C)c(C(=O)CCC)c1 (centres undefined)	20.78	3.5 mg/kg	4.78 mg/kg	0.23 mg/kg
CCCCCC(=O)Nc1ccc(OCC(O)CNC(C)C)c(C(C)=O)c1 (centres undefined)	29.31	3.2 mg/kg	0.85 mg/kg	0.029 mg/kg
CC(=O)c1cc(NC(=O)CC(C)C)ccc1OCC(O)CNC(C)C (centres undefined)	19.09	3.8 mg/kg	2.1 mg/kg	0.11 mg/kg
CCC(=O)Nc1ccc(OCC(O)CNC(C)C)c(C(C)=O)c1 (racemic)	8.25	22.5 mg/kg	0.52 mg/kg	0.063 mg/kg
CC(=O)Nc1ccc(OCC(O)CNC(C)C)cc1 (centres undefined) [PRACTOLOL]	10.13	>35 mg/kg	1.6 mg/kg	0.158 mg/kg
CCCC(=O)Nc1ccc(OCC(O)CNC(C)C)c(C(C)=O)c1 (centres undefined) [ACEBUTOLOL]	20	8.1 mg/kg	2.6 mg/kg	0.13 mg/kg
CC(=O)c1cc(NC(=O)C(C)C)ccc1OCC(O)CNC(C)C (centres undefined)	18.5	17.2 mg/kg	1.85 mg/kg	0.1 mg/kg
CCCCCCC(=O)Nc1ccc(OCC(O)CNC(C)C)c(C(C)=O)c1 (centres undefined)	12.5	2.7 mg/kg	0.5 mg/kg	0.04 mg/kg
CCCC(=O)Nc1ccc(OCC(O)CNC(C)C)c(C(=O)CC)c1 (centres undefined)	14.18	6.1 mg/kg	1.12 mg/kg	0.079 mg/kg
CCCCCCCC(=O)Nc1ccc(OCC(O)CNC(C)C)c(C(C)=O)c1 (racemic)	13.84	3.9 mg/kg	0.692 mg/kg	0.05 mg/kg
CC(=O)Nc1ccc(OCC(O)CNC(C)C)c(C(C)=O)c1 (centres undefined) [DIACETOLOL]	3.59	>15 mg/kg	0.32 mg/kg	0.089 mg/kg
